Earlier results, collected in patent EP0687181B1, “USE OF THYMOSIN FOR TREATING HEPATITIS C IN NON-RESPONDERS TO INTERFERON TREATMENT” (ALPHA 1 BIOMEDICALS, INC., priority 1993, dated 2001).
Where no end group is shown, it is not given here.

Experiments:
HCV-related diseases = conditions: in vivo
influenza vaccine = conditions: drug recipients

| Molecule | effect on progression of HCV-related diseases (HCV-related diseases) | toxicity (influenza vaccine) |
| --- | --- | --- |
| Nc1nc2c(ncn2COCCO)c(=O)[nH]1 [acyclovir] | ineffective |  |
| Ac-SDAAVDTSSEITTKDLKEKKEVVEEAEN [Thymosin α-1] |  | No clinical or biochemical toxicity |
